Here are results for eight molecules from paper PMC5877410 (Journal of medicinal chemistry, 2017).

A word on the Ki: it is a dissociation constant, usually derived from enzyme kinetics or from competition with a known ligand. Read a high Ki as weaker binding.

One data set deals with Caco-2 monolayers. The note with it: cited from earlier work.
For data set [1], the system named is Caco-2 cell monolayer.
The subject of the next data set is NAP1 spores. The experiment in a line: Phase-contrast microscope spore count assay. It counts as cell-based, Clostridium difficile.
The next data set deals with NAP1 C. difficile spores. Briefly: Optical density. The format is cell-based, Clostridium difficile.
The next data set deals with ATCC strain 630. The note with it: murine infection model, strain ATCC 630; cited from earlier work.
Data set [2] has as its target C. difficile spore germination. The format is cell-based, Clostridium difficile. The following applies: inhibitor evaluated at 0.2 mM, varying TCA; average of three experiments ± SEM.
The subject of data set [3] is Caco-2 cell monolayer. Briefly: Caco-2 cell monolayer bidirectional permeability assay. The following applies: 10 μM. A general note: Passage across Caco-2 layers is used to estimate intestinal permeability.
Setting [4] is: 10 μM compound, 2000 μM TCA, after 20 min, mean ± SD, N = 3.

Where “and” joins values, the source holds several entries; their conditions need not be identical. Equal values may be shown once. Read-outs that look alike come from different tables or passages of the source.

Regarding `C[C@H](CCC(=O)NCCS(=O)(=O)O)[C@H]1CC[C@H]2[C@@H]3[C@H](O)C[C@@H]4C[C@H](O)CC[C@]4(C)[C@H]3C[C@H](O)[C@]12C` [TCA, taurocholic acid], the transport ratio entry with Caco-2 monolayers is reported as “greater than 10”.

“sodium 5-((R)-3-((3R,5S,7R,8R,9S,10S,13R,14S,17R)-3-methoxy-10,13-dimethyl-7-(sulfonatooxy)hexadecahydro-1H-cyclopenta[a]phenanthren-17-yl)-butyl)tetrazol-1-ide [38a]”: in the data set with Caco-2 cell monolayer [1], the “mean permeability A–B” value is reported as 0.4 10^−6 cm/s and the “mean permeability B–A” value is recorded as 0.4 10^−6 cm/s. Further, in the data set on NAP1 spores, the “Percent Spore Germination t0” value is listed as 20 ± 11% and the “Percent Spore Germination t20” value is on record as 48 ± 11%.

As for `COC(=O)CC[C@@H](C)[C@H]1CC[C@H]2[C@@H]3[C@H](O)C[C@@H]4C[C@H](O)CC[C@]4(C)[C@H]3CC[C@]12C` [2a, methyl (R)-4-((3R,5S,7R,8R,9S,10S,13R,14S,17R)-3,7-dihydroxy-10,13-dimethylhexadecahydro-1H-cyclopenta[a]phenanthren-17-yl)pentanoate, reference compound], the “Percent Spore Germination t20” value in the data set on NAP1 spores (setting [4]) amounted to 71 ± 1%.

On to `CO[C@@H]1CC[C@@]2(C)[C@@H](C1)C[C@H](OS(=O)(=O)[O-])[C@@H]1[C@@H]2CC[C@]2(C)[C@@H]([C@H](C)CCC(=O)N3CCCC3)CC[C@@H]12.[Na+]` [21b, Sodium (3R,5S,7S,8R,9S,10S,13R,14S,17R)-3-Methoxy-10,13-dimethyl-17-((R)-5-oxo-5-(pyrrolidin-1-yl)pentan-2-yl)-hexadecahydro-1H-cyclopenta[a]phenanthren-7-yl Sulfate], for which the “Percent Spore Germination t20” value in the data set with NAP1 spores (setting [4]) is given as 30 ± 6%. Moreover, in the data set with NAP1 spores (10 μM compound, 2000 μM TCA, time 0, mean ± SD, N = 3), the “Percent Spore Germination t0” value is reported as 18 ± 2%. Also, in the data set with NAP1 spores (50 μM compound, 2000 μM TCA (Table S1)), the “Inhibition of spore germination at 50 μM” value is on record as “complete inhibition of spore germination”.

For “sodium 5-((R)-3-((3R,5S,7R,8R,9S,10S,13R,14S,17R)-3,7-dihydroxy-10,13-dimethylhexadecahydro-1H-cyclopenta[a]phenanthren-17-yl)butyl)tetrazol-1-ide [35a]”, in the data set with NAP1 C. difficile spores, the “Concentration Required for Complete Inhibition” value was 10 µM. For the same molecule, in the data set on NAP1 spores, the “Percent Spore Germination Relative to control” value was 12% and 12 ± 6%; the “Percent Spore Germination t0” value came out at 15 ± 6%; the “Percent Spore Germination t20” value was 22 ± 6%.

Take `C[C@H](CCC(=O)Nc1cccc(S(=O)(=O)O)c1)[C@H]1CC[C@H]2[C@@H]3[C@H](O)C[C@@H]4C[C@H](O)CC[C@]4(C)[C@H]3C[C@H](O)[C@]12C` [compound 3, reference compound]: in the data set with NAP1 spores (setting [4]), the “Percent Spore Germination t20” value is given as 74 ± 2%. Besides, in the data set with ATCC strain 630, the “Effect on CDI symptoms” value is listed as “eradicated CDI symptoms”.

For the molecule `CO[C@@H]1CC[C@@]2(C)[C@@H](C1)C[C@H](OC)[C@@H]1[C@@H]2CC[C@]2(C)[C@@H]([C@H](C)CCC(=O)O)CC[C@@H]12` [6b, (R)-4-((3R,5S,7S,8R,9S,10S,13R,14S,17R)-3,7-Dimethoxy-10,13-dimethylhexadecahydro-1H-cyclopenta[a]-phenanthren-17-yl)pentanoic Acid], the “Percent Spore Germination t20” value in the data set with NAP1 spores (setting [4]) was 71 ± 2%.

As for “sodium 5-((R)-3-((3R,5R,7R,8R,9S,10S,13R,14S,17R)-7-hydroxy-3-methoxy-10,13-dimethyl-hexadecahydro-1H-cyclopenta[a]phenanthren-17-yl)butyl)-tetrazol-1-ide [37a]”, in the data set on Caco-2 cell monolayer [1], the “mean permeability A–B” value is 10.7 10^−6 cm/s and the “mean permeability B–A” value is listed as 1.9 10^−6 cm/s. For the same molecule, the “Concentration Required for Complete Inhibition” value in the data set with NAP1 C. difficile spores worked out at 5 µM. Moreover, in the data set with NAP1 spores, the “Percent Spore Germination t0” value is 20% and 16 ± 4%; the “Percent Spore Germination t20” value is 25%. The Ki in data set [2] was determined as 17.9 ± 4.6 µM. Further, in the data set on Caco-2 cell monolayer [3], the “fold greater permeability in the A–B direction than C7-sulfated analogue 38a” value was “over 25 times”.
